# Columns and labels:
# [1] = system: cocaine-induced reinstatement; assay: Extinction/reinstatement paradigm, cocaine-induced reinstatement of lever pressing; assay type: in vivo; details: rats, cocaine 10 mg/kg IP
# From the text: The extinction/reinstatement paradigm represents one of the most common paradigms used to screen for potential anticraving properties of novel pharmacotherapies. In the present experiments, rats were implanted with indwelling jugular catheters with an external port affixed slightly posterior to the rat's shoulder blades. Tubing is used to connect a syringe of cocaine to the external port of the indwelling catheter. Rats are then placed into standard operant chambers (Med Associates) and permitted to press a lever for an infusion of cocaine (0.5 mg/kg/200 microL, IV). Once behavior is stable, rats are permitted at least eleven 2-hr sessions to self-administer cocaine. Afterwards, the cocaine solution is replaced with saline in order to extinguish lever pressing. Once responding decreases to 10 or fewer lever presses/2 hr sessions for 3 out of 4 daily sessions, rats are tested for reinstatement (relapse). To do this, rats are placed into the operant chamber and vehicle or a cysteine/cystine prodrug (1-60 mg/kg, p.o.; N=2-12) is administered. Afterwards, rats then receive an injection of cocaine (10 mg/kg, IP). Responding is then assessed for 120 min.
# [2] = system: PCP-evoked deficits in pre-pulse inhibition; assay: Prepulse inhibition of startle response, phencyclidine (PCP)-induced sensorimotor gating deficits; assay type: in vivo, rats; details: for sensorimotor gating (inhibition of startle response by pre-pulse) after PCP: rats, 30 mg/kg po, 60 min prior to PCP 1 mg/kg SC, pre-pulse 2-15 db above background, FIG. 2
# [3] = system: extracellular glutamate in the prefrontal cortex; assay: Extracellular glutamate in the prefrontal cortex compared to baseline after prodrug administration; assay type: in vivo; details: rats; compound 7 30 mg/kg po (N=1) versus N-acetylcysteine 60 mg/kg IP (N=4); FIG. 1
# Method: FIG. 1 is a bar graph depicting extracellular glutamate in the prefrontal cortex (compared to baseline) following administration of cysteine prodrugs N-acetylcysteine (60 mg/kg, IP; N=4) or compound 7 (30 mg/kg, po; N=1) in rats. […] Compound 7 was given to the animal orally, and thereby subjected to potential first-pass metabolism. Conversely, N-acetylcysteine was given IP in order to avoid extensive first pass metabolism that would occur following oral administration. Thus, compound 7 produced a larger relative increase in glutamate in rats as compared to NAC even though NAC was given in its preferred route of administration and at twice the concentration.
compound,measurement,setting,value
CC(=O)N[C@@H](CS)C(=O)O [N-acetylcysteine],cocaine-induced reinstatement (responding),"[1]; 30 and 60 mg/kg IP, responding over 120 min, FIG. 8",significant reduction in cocaine-induced reinstatement
same,cocaine-induced reinstatement (responding),"[1]; given orally, FIG. 9",less effective when given orally
same,restoration of inhibition of a startle response after PCP,"[2]; infused directly into the rodent prefrontal cortex, 0-100 microM, FIG. 5",significantly restored inhibition of a startle response at each concentration tested
same,restoration of sensorimotor gating after PCP,"[2]; intraperitoneal injection 60 min prior to testing, three prepulse stimulus intensities, FIG. 4",failed to significantly restore sensorimotor gating at any of the three prepulse stimulus intensities
same,attenuation of deficits in prepulse inhibition produced by phencyclidine,"[2]; oral administration 60 min prior to testing, FIG. 3",fails to significantly attenuate deficits in prepulse inhibition
same,sensorimotor gating (inhibition of startle response by pre-pulse) after PCP,[2],trend toward improved sensorimotor gating (p=0.1)
"CCOC1=NC(CSSCC2N=C(OCC)CN=C2OCC)C(OCC)=NC1 (centres unmarked) [Compound 6, Bis[(3,6-Diethoxy-2,5-dihydro-pyrazin-2-yl)-methanethiol]]",restoration of sensorimotor gating after PCP,"[2]; oral administration (0-1 mg/kg) 60 min prior to testing, prepulse 2, 6, 15 dB above background, FIG. 7",significantly restored sensorimotor gating at the highest prepulse intensity
"O=C1CNC(=O)[C@H](CSSC[C@H]2NC(=O)CNC2=O)N1 [Compound 7, Bis[2,5-Piperazinedione, 3-(mercaptomethyl)-]]",peak increase in extracellular glutamate in the prefrontal cortex (compared to baseline),[3],much larger peak increase in glutamate
same,sensorimotor gating (inhibition of startle response by pre-pulse) after PCP,[2],significant improvement in sensorimotor gating relative to PCP controls and rats receiving NAC+PCP
"CCOC1=NC(CS)C(OCC)=NC1 (centres unmarked) [Compound 5, (3,6-Diethoxy-2,5-dihydro-pyrazin-2-yl)-methanethiol]",cocaine-induced reinstatement (responding),"[1]; 1 mg/kg p.o., FIG. 9",sufficient to block cocaine-induced reinstatement
same,sensorimotor gating as assessed by inhibition of a startle response after PCP,"[2]; 1 mg/kg orally 60 min prior to testing, PCP 0-1.25 mg/kg SC, FIG. 6",significant increase in sensorimotor gating
